The results in this text go back to ChEMBL document CHEMBL1135283, “Carbonic anhydrase activators: human isozyme II is strongly activated by oligopeptides incorporating the carboxyterminal sequence of the bicarbonate anion exchanger AE1” (Bioorg Med Chem Lett, 2002).

Assay [1] has as its target T1, Carbonic anhydrase 4 (Bos taurus) (UniProt Q95323).
T1 sequence (whole entry): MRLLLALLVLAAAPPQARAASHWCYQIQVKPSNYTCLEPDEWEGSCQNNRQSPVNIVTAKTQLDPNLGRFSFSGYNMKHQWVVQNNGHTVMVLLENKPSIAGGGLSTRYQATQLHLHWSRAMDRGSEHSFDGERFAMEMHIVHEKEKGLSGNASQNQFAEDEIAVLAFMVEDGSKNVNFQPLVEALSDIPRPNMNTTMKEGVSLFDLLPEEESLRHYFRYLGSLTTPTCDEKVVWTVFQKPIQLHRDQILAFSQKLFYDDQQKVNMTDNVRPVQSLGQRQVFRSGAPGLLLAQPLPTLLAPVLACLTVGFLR
Put plainly: Tested in vitro for activation of carbonic anhydrase IV (bCA IV), purified from bovine lung microsomes. The conditions noted are these: Microsome.

For assay [2], the target named is Carbonic anhydrase 2 (Homo sapiens) (UniProt P00918). Kind of assay: Tested in vitro for activation of Human cloned isozyme carbonic anhydrase II (hCA II).
In assay [3] the target is Carbonic anhydrase 1 (Homo sapiens) (UniProt P00915). Put plainly: Tested in vitro for activation of Human cloned isozyme carbonic anhydrase I (hCA I).
Sequence of Carbonic anhydrase 1 (Homo sapiens) (P00915 2-261 limits assumed): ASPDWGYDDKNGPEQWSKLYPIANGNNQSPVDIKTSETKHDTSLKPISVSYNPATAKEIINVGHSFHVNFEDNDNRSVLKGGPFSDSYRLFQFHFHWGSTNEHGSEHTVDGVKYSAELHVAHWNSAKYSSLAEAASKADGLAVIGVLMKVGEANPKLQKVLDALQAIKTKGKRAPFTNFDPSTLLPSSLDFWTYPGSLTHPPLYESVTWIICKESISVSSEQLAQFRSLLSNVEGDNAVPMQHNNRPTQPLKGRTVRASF

Where a SMILES comes first, the peptide text is derived from it. The star is where a group is joined. Boc = CC(C)(C)OC(=O)* Bounds are passed on as bounds.

As to `CC(C)(C)OC(=O)N[C@@H](CC(=O)O)C(=O)O`, the KA in assay [1], in assay [2] and in assay [3] was > 200 µM each time.

As for `C[C@H](N)C(=O)O`, the KA in assay [1] was found to be 66 µM; in assay [2], 150 µM; in assay [3] it was 54 µM.

As for `N[C@@H](CC(=O)O)C(=O)O`, the KA was 60 µM in assay [1], 130 µM in assay [2] and 48 µM in assay [3].

Take `CC(=O)N[C@@H](CC(=O)O)C(=O)N[C@@H](C)C(=O)O` (Ac-Asp-Ala-OH): the KA in assay [1], in assay [2] and in assay [3] was > 200 µM throughout.

As for `CC(=O)N[C@@H](CC(=O)O)C(=O)N[C@@H](CC(=O)O)C(=O)O` (Ac-Asp-Asp-OH), the KA in assay [1], in assay [2] and in assay [3] was > 200 µM each time.

Take `CC(C)(C)OC(=O)N[C@@H](CC(=O)O)C(=O)N[C@@H](CC(=O)O)C(=O)N[C@@H](CC(=O)O)C(=O)O` (Boc-Asp-Asp-Asp-OH): the results for the KA in assay [1], in assay [2] and in assay [3] were > 200 µM, 145 µM and > 200 µM, respectively.

For `CC(C)(C)OC(=O)N[C@@H](CC(=O)O)C(=O)N[C@@H](CC(=O)O)C(=O)O` (Boc-Asp-Asp-OH), the KA in assay [1], in assay [2] and in assay [3] was > 200 µM throughout.

Take `C[C@H](NC(=O)[C@H](CC(=O)O)NC(=O)OC(C)(C)C)C(=O)N[C@@H](CC(=O)O)C(=O)N[C@@H](CC(=O)O)C(=O)O` (Boc-DADD-OH): the KA was > 200 µM in assay [1], 131 µM in assay [2] and > 200 µM in assay [3].

For the compound `CC(C)(C)OC(=O)N[C@@H](CC(=O)O)C(=O)N[C@@H](CC(=O)O)C(=O)N[C@@H](CC(=O)O)C(=O)N[C@@H](CC(=O)O)C(=O)O` (Boc-DDDD-OH), the KA in assay [1] was > 200 µM; in assay [2], 124 µM; in assay [3], > 200 µM.

Turning to `C[C@H](N)C(=O)N[C@@H](C)C(=O)O` (H-Ala-Ala-OH), the KA in assay [1] was 62 µM; in assay [2], 110 µM; in assay [3], 50 µM.

As for `C[C@H](NC(=O)[C@@H](N)CC(=O)O)C(=O)N[C@@H](CC(=O)O)C(=O)O` (H-Asp-Ala-Asp-OH), the figures for the KA in assay [1], in assay [2] and in assay [3] were 48 µM, 10 µM and 38 µM, respectively.

For the compound `C[C@H](NC(=O)[C@@H](N)CC(=O)O)C(=O)O` (H-Asp-Ala-OH), the KA is 55 µM in assay [1], 33 µM in assay [2] and 40 µM in assay [3].

Regarding `N[C@@H](CC(=O)O)C(=O)N[C@@H](CC(=O)O)C(=O)N[C@@H](CC(=O)O)C(=O)O` (H-Asp-Asp-Asp-OH), the figures for the KA in assay [1], in assay [2] and in assay [3] were 45 µM, 11 µM and 40 µM, respectively.

Regarding `N[C@@H](CC(=O)O)C(=O)N[C@@H](CC(=O)O)C(=O)O` (H-Asp-Asp-OH), the KA was 51 µM in assay [1], 21 µM in assay [2] and 39 µM in assay [3].

Turning to `C[C@H](NC(=O)[C@@H](N)CC(=O)O)C(=O)N[C@@H](CC(=O)O)C(=O)N[C@@H](CC(=O)O)C(=O)O` (H-DADD-OH), the KA in assay [1] turned out to be 46 µM; in assay [2] it was 0.2 µM; in assay [3], 36 µM.

With `N[C@@H](CC(=O)O)C(=O)N[C@@H](CC(=O)O)C(=O)N[C@@H](CC(=O)O)C(=O)N[C@@H](CC(=O)O)C(=O)O` (H-DDDD-OH), the KA in assay [1] was 43 µM; in assay [2], 0.1 µM; in assay [3] it was 35 µM.
